According to patent publication US5962314A, “Calcium receptor-active molecules” (priority 1997, dated 1999):
“Also recorded” adds a separate entry of the source. Where two headings read alike, the source gives them in different places.

Tests used:
[1] = test system: osteoclast calcium receptor; assay: [Ca2+]i in indo-1-loaded rat osteoclasts; assay type: cell-based
C-cell calcium receptor = target: T1, C-cell calcium receptor (Rattus norvegicus, UniProt P48442); assay type: cell-based
T1 construct: Neoplastic C-cells derived from a rat medullary thyroid carcinoma (rMTC 6-23); host or cells: rMTC 6-23 cells
T1 sequence (P48442 20-1079): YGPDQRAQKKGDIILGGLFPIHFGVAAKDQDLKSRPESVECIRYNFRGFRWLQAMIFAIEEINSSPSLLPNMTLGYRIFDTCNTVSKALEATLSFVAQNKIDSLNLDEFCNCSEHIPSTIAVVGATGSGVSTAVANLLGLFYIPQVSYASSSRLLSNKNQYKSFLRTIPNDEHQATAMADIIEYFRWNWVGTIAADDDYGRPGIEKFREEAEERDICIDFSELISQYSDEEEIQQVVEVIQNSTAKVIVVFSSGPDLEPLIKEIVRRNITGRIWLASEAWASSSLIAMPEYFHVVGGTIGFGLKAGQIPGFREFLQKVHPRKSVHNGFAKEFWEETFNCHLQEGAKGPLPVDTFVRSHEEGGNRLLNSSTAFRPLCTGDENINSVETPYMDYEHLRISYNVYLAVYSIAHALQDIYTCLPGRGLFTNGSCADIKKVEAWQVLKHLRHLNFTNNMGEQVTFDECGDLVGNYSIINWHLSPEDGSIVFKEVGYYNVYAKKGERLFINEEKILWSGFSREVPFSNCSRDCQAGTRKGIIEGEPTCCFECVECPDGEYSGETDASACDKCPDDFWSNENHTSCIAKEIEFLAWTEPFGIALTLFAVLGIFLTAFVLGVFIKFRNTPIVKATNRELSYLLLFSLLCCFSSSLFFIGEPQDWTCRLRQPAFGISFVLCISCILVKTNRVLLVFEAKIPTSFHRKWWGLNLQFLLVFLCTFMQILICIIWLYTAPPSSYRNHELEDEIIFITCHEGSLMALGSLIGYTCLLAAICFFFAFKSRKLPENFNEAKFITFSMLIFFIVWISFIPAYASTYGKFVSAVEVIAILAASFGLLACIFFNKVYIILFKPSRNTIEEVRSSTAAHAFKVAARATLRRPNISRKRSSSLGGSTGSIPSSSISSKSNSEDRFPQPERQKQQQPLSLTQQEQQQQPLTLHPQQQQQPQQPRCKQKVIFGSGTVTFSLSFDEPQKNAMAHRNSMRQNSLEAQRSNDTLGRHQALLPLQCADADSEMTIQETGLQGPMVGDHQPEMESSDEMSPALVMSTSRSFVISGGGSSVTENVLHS
Source text: To assess the effects of molecular polycations on C-cells, a neoplastic cell line, derived from a rat medullary thyroid carcinoma (rMTC 6-23 cells) was used.

bovine parathyroid cells = assay: PTH secretion from bovine parathyroid cells; assay type: cell-based; conditions: bovine parathyroid cells
Procedure: PTH secretion was measured by first suspending cells in PCB containing 0.5 mM CaCl2 and 0.1% BSA.

calcium receptor = target: T2, calcium receptor (Homo sapiens, UniProt P41180); assay: Xenopus oocytes injected with human parathyroid cell mRNA; assay type: cell-based; conditions: for effect on Cl- current: oocytes injected with human parathyroid mRNA; for effect in water-injected oocytes: neomycin B 10 mM
T2 sequence (P41180 20-1078): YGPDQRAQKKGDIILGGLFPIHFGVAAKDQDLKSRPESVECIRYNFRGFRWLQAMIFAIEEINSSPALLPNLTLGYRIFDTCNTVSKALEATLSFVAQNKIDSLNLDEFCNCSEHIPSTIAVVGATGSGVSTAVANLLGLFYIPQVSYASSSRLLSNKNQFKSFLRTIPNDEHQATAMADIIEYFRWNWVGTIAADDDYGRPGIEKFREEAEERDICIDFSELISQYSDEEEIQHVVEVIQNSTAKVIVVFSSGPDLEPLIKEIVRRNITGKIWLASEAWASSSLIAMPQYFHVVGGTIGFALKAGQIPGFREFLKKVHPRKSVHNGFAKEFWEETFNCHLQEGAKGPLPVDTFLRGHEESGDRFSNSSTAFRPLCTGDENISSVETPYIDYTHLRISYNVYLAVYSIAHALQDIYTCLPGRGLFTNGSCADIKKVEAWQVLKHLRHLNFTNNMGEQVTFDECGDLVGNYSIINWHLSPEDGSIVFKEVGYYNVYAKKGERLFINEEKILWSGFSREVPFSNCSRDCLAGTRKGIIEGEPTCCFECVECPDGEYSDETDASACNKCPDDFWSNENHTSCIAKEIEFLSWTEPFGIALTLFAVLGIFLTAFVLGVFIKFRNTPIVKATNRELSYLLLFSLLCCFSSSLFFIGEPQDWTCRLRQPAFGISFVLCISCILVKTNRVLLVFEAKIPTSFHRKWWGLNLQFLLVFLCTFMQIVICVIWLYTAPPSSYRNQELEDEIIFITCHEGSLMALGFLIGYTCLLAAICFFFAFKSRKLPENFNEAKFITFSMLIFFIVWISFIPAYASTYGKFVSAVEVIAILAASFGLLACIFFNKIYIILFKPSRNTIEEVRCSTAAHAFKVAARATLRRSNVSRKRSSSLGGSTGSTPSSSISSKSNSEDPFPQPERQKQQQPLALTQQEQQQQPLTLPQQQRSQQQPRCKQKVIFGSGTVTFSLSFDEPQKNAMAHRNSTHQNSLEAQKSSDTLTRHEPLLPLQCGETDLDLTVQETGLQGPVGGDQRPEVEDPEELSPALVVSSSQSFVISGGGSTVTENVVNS
Procedure: Oocytes were injected with poly(A)^+ -enriched mRNA from human parathyroid tissue (hyperplastic glands from a case of secondary HPT).
Following incubation, an oocyte was placed into a 100-μl plastic chamber and superfused with MBS at a flow rate of 0.5 ml/min using a peristaltic pump. Test molecules or inorganic polycations were added by rapidly moving the tubing into different buffers. Recording and current-passing electrodes were constructed from thin-wall capillary tubing pulled to a resistance of 1-3 Mohms and filled with 3 M KCl. […] Currents were recorded directly onto a strip chart recorder.
Using this screen allows one to test for an action directly on the calcium receptor. Oocytes expressing the calcium receptor also responded to several molecules active on intact parathyroid cells when screened as follows. […] This offers rather compelling evidence showing that these molecules act on the calcium receptor or on some other protein intimately associated with its function.

calcitonin = calcitonin levels in rats; assay type: in vivo, rat; conditions: NPS R-568 p.o.
serum ionized calcium = assay: serum ionized Ca2+ in parathyroidectomized rats; assay type: in vivo, rat; conditions: NPS R-467 10 mg/kg i.p., 6 hours; NPS R-568 oral
Source text: To determine the primary target tissue upon which NPS R-467 acts to cause a hypocalcemic response, the parathyroid glands in rats were surgically removed. Animals receiving a total parathyroidectomy become hypocalcemic and are largely dependent upon dietary calcium to maintain serum Ca^2+ homeostasis.

serum calcitonin = serum calcitonin in a human; assay type: in vivo; conditions: single oral doses studied
Source text: A range of single oral doses was used to assess safety, tolerance, and changes in primary hyperparathyroidism markers (e.g., plasma concentrations of parathyroid hormone and ionized serum calcium) and of serum calcitonin.

SMILES | effect on [Ca2+]i in osteoclasts [1] | effect on response to extracellular Ca2+ in osteoclasts [1] | effect on [Ca2+]i in osteoclasts ([1]; listed as neomycin) | effect on [Ca2+]i in osteoclasts ([1]; listed as neomycin B) | effect on [Ca2+]i in C-cells (C-cell calcium receptor) | effect on PTH secretion (bovine parathyroid cells) | mobilization of intracellular Ca2+ in oocytes (calcium receptor; hexacyclen 135 μM, neomycin 100 μM, NPS 382 5 mM) | effect on Cl- current (calcium receptor; listed as Neomycin B) | effect on Cl- current (calcium receptor; listed as neomycin B) | effect in water-injected oocytes (calcium receptor; listed as Neomycin B) | effect in water-injected oocytes (calcium receptor; listed as neomycin B) | effect on calcitonin, oral (calcitonin) | effect on serum ionized Ca2+ in parathyroidectomized rats (serum ionized calcium) | effect on serum calcitonin in human (serum calcitonin)
NC[C@@H]1O[C@H](O[C@H]2[C@@H](O)[C@H](O[C@@H]3[C@@H](O)[C@H](N)C[C@H](N)[C@H]3O[C@H]3O[C@H](CN)[C@@H](O)[C@H](O)[C@H]3N)O[C@@H]2CO)[C@H](N)[C@@H](O)[C@@H]1O [Neomycin] | failed to evoke any increase in [Ca^2+ ]i; also recorded: Neither neomycin (10 mM) nor spermine (10 or 20 mM) caused increases in [Ca^2+ ]i; also recorded: fail to affect the calcium receptors on C-cells or osteoclasts | did not block the increase in [Ca^2+ ]i | none of these caused any large increase in [Ca^2+ ]i | fail to evoke increases in [Ca^2+ ]i | fails to affect basal or evoked increases in C-cells; also recorded: without effect on basal [Ca^2+ ]i; also recorded: fail to affect the calcium receptors on C-cells or osteoclasts | inhibited PTH secretion to the same extent as extracellular Ca^2+ | also effective | evoked oscillatory increases in the Cl^- | evokes oscillating increases in the Cl^- | failed to elicit a response in five water-injected oocytes | failed to cause any change in the current | – | – | –
NCCCNCCCCNCCCNCCCNCCCNC(=O)Cc1c[nH]c2ccccc12 [NPS 019] | – | – | – | – | mobilization of intracellular Ca^2+ | – | – | – | – | – | – | – | – | –
COc1cccc([C@@H](C)NCCCc2ccccc2Cl)c1 [NPS R-568, (R)-(+)-N-[3-(2-chlorophenyl)propyl]-α-methyl-3-methoxybenzylamine] | – | – | – | – | – | – | – | – | – | – | – | increase in calcitonin | fails to elicit a hypocalcemic response | no apparent change in serum calcitonin
